Results as given in publication PMC4146477, “Synthesis and Antimycobacterial and Photosynthesis-Inhibiting Evaluation of 2-[(E)-2-Substituted-ethenyl]-1,3-benzoxazoles” (The Scientific World Journal, 2014).
Values after ≈ are worked out from the molar mass of the structure shown. Values joined by “and” are separate entries in the source; they are usually repeats but may differ in a detail not shown here. Equal values may be shown once. Read-outs that look alike come from different tables or passages of the source.

Assays:
[1] = Lipophilicity determination by RP-HPLC (capacity factor k / log k); assay type: physicochemical; settings: C18, MeOH 70% / H2O 30%, isocratic
From the text: A Waters Alliance 2695 XE HPLC separation module and a Waters Photodiode Array Detector 2996 (Waters Corp., Milford, MA, USA) were used. A Symmetry C18 5 μm, 4.6 × 250 mm, Part No. WAT054275 (Waters Corp., Milford, MA, USA) chromatographic column was used. The HPLC separation process was monitored by Empower 2 Chromatography Data Software, Waters 2009 (Waters Corp., Milford, MA, USA). A mixture of MeOH p.a. (70%) and H2O-HPLC - Mili-Q Grade (30%) was used as a mobile phase. The total flow of the column was 1.0 mL/min, injection volume, 30 μL, column temperature, 45°C, and sample temperature, 10°C. The detection wavelength of 210 nm was chosen. The KI methanolic solution was used for the dead time (t D) determination. Retention times (t R) were measured in minutes. The capacity factors k were calculated using the Empower 2 Chromatography Data Software according to formula k = (t R − t D)/t D, where t R is the retention time of the solute, whereas t D denotes the dead time obtained using an unretained analyte.
Lipophilicity is a property that has a major effect on ADME/Tox properties as well as pharmacological activity, because drugs mostly cross biological membranes through passive transport, which strongly depends on their lipophilicity. Lipophilicity has been studied and applied as an important drug property for decades. This parameter was measured by means of RP-HPLC and expressed as logarithm of capacity factor k. The procedure was performed under isocratic conditions with methanol as an organic modifier in the mobile phase using an end-capped nonpolar C18 stationary RP column. The hydrophobic contributions (expressed as distributive parameters π) of individual substituents in C(2) position of 2-[(E)-2-substituted-ethenyl]-1,3-benzoxazole scaffold were predicted using ACD/Percepta ver. 2012 (Advanced Chemistry Development, Inc., Toronto, ON, Canada). The results are shown in Table 1 and the match of the experimental determined lipophilicity log k with calculated distributive parameters π is illustrated in Figure 1.

[2] = system: Mycobacterium tuberculosis My 331/88; test: In vitro antimycobacterial evaluation (MIC, Sula semisynthetic medium); assay type: cell-based
M. avium My 330/88 = test: as above; assay type: cell-based; settings: Mycobacterium avium
M. kansasii My 235/80 = test: as above; assay type: cell-based; settings: Mycobacterium kansasii
[3] = system: photosynthetic electron transport (PET) in spinach chloroplasts; test: Inhibition of photosynthetic electron transport (PET) in spinach chloroplasts (DCPIP photoreduction); assay type: biochemical, Spinacia oleracea L.; settings: DCPIP as electron acceptor
Protocol: Chloroplasts were prepared from spinach (Spinacia oleracea L.) according to Masarovicova and Kralova. The inhibition of photosynthetic electron transport (PET) in spinach chloroplasts was determined spectrophotometrically (Genesys 6, Thermo Scientific), using an artificial electron acceptor 2,6-dichlorophenol-indophenol (DCPIP) according to Kralova et al., and the rate of photosynthetic electron transport was monitored as a photoreduction of DCPIP. The measurements were carried out in phosphate buffer (0.02 mol/L, pH 7.2) containing sucrose (0.4 mol/L), MgCl2 (0.005 mol/L), and NaCl (0.015 mol/L). The chlorophyll content was 30 mg/L in these experiments and the samples were irradiated (~100 W/m^2 with 10 cm distance) with a halogen lamp (250 W) using a 4 cm water filter to prevent warming of the samples (suspension temperature 22°C). The studied compounds were dissolved in DMSO due to their limited water solubility. […] The inhibitory efficiency of the studied compounds was expressed by IC50 values, that is, by molar concentration of the compounds causing 50% decrease in the oxygen evolution rate relative to the untreated control.

[4] = system: aromatic amino acids in photosynthetic proteins of spinach chloroplasts; test: Aromatic amino acids (AAA) fluorescence in spinach chloroplasts; assay type: biochemical, Spinacia oleracea L.; settings: increasing concentration (0, 3.2, 6.4, 9.6 μmol/L), excitation 275 nm
Protocol: The fluorescence emission spectra of aromatic amino acids (AAA) in spinach chloroplasts were recorded on fluorescence spectrophotometer F-2000 (Hitachi, Tokyo, Japan) using excitation wavelength λ ex = 275 nm, excitation slit 20 nm, and emission slit 10 nm. The phosphate buffer used for dilution of the chloroplast suspension was the same as described above. Due to low aqueous solubility the compounds were added to the chloroplast suspension in DMSO solution. The DMSO concentration in all samples was the same as in the control (10%). The chlorophyll concentration in the chloroplast suspension was 10 mg/L. The interaction of studied compounds with aromatic amino acids (AAA) occurring in photosynthetic proteins of spinach chloroplasts situated in PS II was monitored by the quenching of AAA fluorescence at 334 nm.

[5] = MY331/88, 336 h, 14d incubation
[6] = MY331/88, 504 h, 21d incubation
[7] = MY330/88, 336 h, 14d incubation
[8] = MY330/88, 504 h, 21d incubation
[9] = MY235/80, 336 h, 14d incubation, read-out: MIC MK
[10] = MY235/80, 504 h, 21d incubation, read-out: MIC MK
[11] = MY235/80, incubation time not stated, read-out: inhibitory activity (MIC) against M. kansasii

Compound	log k [1]	MIC [2, 5] [µM]	MIC [2, 6] [µM]	MIC (M. avium My 330/88; [7]) [µM]	MIC (M. avium My 330/88; [8]) [µM]	MIC (M. kansasii My 235/80; [9]) [µM]	MIC (M. kansasii My 235/80; [10]) [µM]	IC50 [3]	AAA fluorescence at 334 nm [4]	MIC (M. kansasii My 235/80; [11]) [µM]
C(=C\c1nc2ccccc2o1)/c1ccccc1 [Compound 1, 2-[(E)-2-Phenylethenyl]-1,3-benzoxazole]	0.9409	125 (≈ 27.7 µg/mL)	125 (≈ 27.7 µg/mL)	62.5 (≈ 13.8 µg/mL)	125 (≈ 27.7 µg/mL)	125 (≈ 27.7 µg/mL)	125 (≈ 27.7 µg/mL)	149 µM		
COc1ccccc1/C=C/c1nc2ccccc2o1 [Compound 2, 2-[(E)-2-(2-Methoxyphenyl)ethenyl]-1,3-benzoxazole]	0.9325	125 (≈ 31.4 µg/mL)	125 (≈ 31.4 µg/mL)	62.5 (≈ 15.7 µg/mL)	125 (≈ 31.4 µg/mL)	125 (≈ 31.4 µg/mL)	125 (≈ 31.4 µg/mL)	76.3 µM		
COc1ccc(/C=C/c2nc3ccccc3o2)cc1 [Compound 3, 2-[(E)-2-(4-Methoxyphenyl)ethenyl]-1,3-benzoxazole]	0.9382	62.5 (≈ 15.7 µg/mL)	62.5 (≈ 15.7 µg/mL)	32 (≈ 8.04 µg/mL)	62.5 (≈ 15.7 µg/mL)	62.5 (≈ 15.7 µg/mL)	125 (≈ 31.4 µg/mL)	216 µM	strong decline	
CSc1ccc(/C=C/c2nc3ccccc3o2)cc1 [Compound 4, 2-{(E)-2-[4-(Methylsulfanyl)phenyl]ethenyl}-1,3-benzoxazole]	1.1225	62.5 (≈ 16.7 µg/mL)	125 (≈ 33.4 µg/mL)	62.5 (≈ 16.7 µg/mL)	62.5 (≈ 16.7 µg/mL)	62.5 (≈ 16.7 µg/mL)	62.5 (≈ 16.7 µg/mL)	199 µM		62.5 (≈ 16.7 µg/mL)
Cc1ccc(/C=C/c2nc3ccccc3o2)cc1 [Compound 5, 2-[(E)-2-(4-Methylphenyl)ethenyl]-1,3-benzoxazole]	1.1226	250 (≈ 58.8 µg/mL)	250 (≈ 58.8 µg/mL)	125 (≈ 29.4 µg/mL)	250 (≈ 58.8 µg/mL)	250 (≈ 58.8 µg/mL)	500 (≈ 118 µg/mL)	102 µM		
Clc1ccc(/C=C/c2nc3ccccc3o2)cc1 [Compound 6, 2-[(E)-2-(4-Chlorophenyl)ethenyl]-1,3-benzoxazole]	1.1226 and 1.1271	250 (≈ 63.9 µg/mL)	250 (≈ 63.9 µg/mL)	250 (≈ 63.9 µg/mL)	500 (≈ 128 µg/mL)	500 (≈ 128 µg/mL)	500 (≈ 128 µg/mL)	517 µM		500 (≈ 128 µg/mL)
FC(F)(F)c1ccc(/C=C/c2nc3ccccc3o2)cc1 [Compound 7, 2-{(E)-2-[4-(Trifluoromethyl)phenyl]ethenyl}-1,3-benzoxazole]	1.1317	125 (≈ 36.2 µg/mL)	250 (≈ 72.3 µg/mL)	125 (≈ 36.2 µg/mL)	250 (≈ 72.3 µg/mL)	250 (≈ 72.3 µg/mL)	500 (≈ 145 µg/mL)			
C(=C\c1nc2ccccc2o1)/c1ccc2c(c1)CCO2 [Compound 8, 2-[(E)-2-(2,3-Dihydro-1-benzofuran-5-yl)ethenyl]-1,3-benzoxazole]	0.9397	62.5 (≈ 16.5 µg/mL)	62.5 (≈ 16.5 µg/mL)	32 (≈ 8.43 µg/mL)	32 (≈ 8.43 µg/mL)	62.5 (≈ 16.5 µg/mL)	250 (≈ 65.8 µg/mL)	131 µM		
C(=C\c1nc2ccccc2o1)/c1ccco1 [Compound 9, 2-[(E)-2-(Furan-2-yl)ethenyl]-1,3-benzoxazole]		62.5 (≈ 13.2 µg/mL)	125 (≈ 26.4 µg/mL)	62.5 (≈ 13.2 µg/mL)	125 (≈ 26.4 µg/mL)	125 (≈ 26.4 µg/mL)	125 (≈ 26.4 µg/mL)	224 µM		
CCc1ccc(/C=C/c2nc3ccccc3o2)o1 [Compound 10, 2-[(E)-2-(5-Ethylfuran-2-yl)ethenyl]-1,3-benzoxazole]	1.0702	250 (≈ 59.8 µg/mL)	250 (≈ 59.8 µg/mL)	250 (≈ 59.8 µg/mL)	250 (≈ 59.8 µg/mL)	62.5 (≈ 15 µg/mL)	250 (≈ 59.8 µg/mL)	122 µM		
C(/C=C/c1nc2ccccc2o1)=C\c1ccccc1 [Compound 11, 2-[(1E,3E)-4-Phenylbuta-1,3-dien-1-yl]-1,3-benzoxazole]		125 (≈ 30.9 µg/mL)	250 (≈ 61.8 µg/mL)	250 (≈ 61.8 µg/mL)	500 (≈ 124 µg/mL)	500 (≈ 124 µg/mL)	500 (≈ 124 µg/mL)	778 µM		500 (≈ 124 µg/mL)
COc1ccc(/C=C/C=C/c2nc3ccccc3o2)cc1 [Compound 12, 2-[(1E,3E)-4-(4-Methoxyphenyl)buta-1,3-dien-1-yl]-1,3-benzoxazole]	1.1394	125 (≈ 34.7 µg/mL)	250 (≈ 69.3 µg/mL)	125 (≈ 34.7 µg/mL)	125 (≈ 34.7 µg/mL)	125 (≈ 34.7 µg/mL)	250 (≈ 69.3 µg/mL)	351 µM		
CN(C)C(=O)Nc1ccc(Cl)c(Cl)c1 [DCMU, 3-(3,4-dichlorophenyl)-1,1-dimethylurea, reference compound]								~1.9 µM and 1.9 µM		
NNC(=O)c1ccncc1 [INH, isoniazid, reference compound]		0.5 (≈ 0.0686 µg/mL)	0.5 (≈ 0.0686 µg/mL)	> 250	> 250	> 250	> 250			
